Reference: patent US11279733B2, “Peptide antibiotics” (priority 2017, dated 2022)
In brackets after ≈: the same amount, converted by molar mass. Where two headings read alike, the source gives them in different places. Positions of bridges follow the written chain, without caps; N, C: chain ends. Non-standard residues stand in square brackets, D forms with d. Residues, ends and D or L forms follow the SMILES beside them. *: point of attachment. dPhe(4-NO2) = N[C@H](Cc1ccc([N+](=O)[O-])cc1)C(=O)O; Decanoyl(3R-OH) = CCCCCCC[C@@H](O)CC(=O)*; dBip = N[C@H](Cc1ccc(-c2ccccc2)cc1)C(=O)O; Decanoyl = CCCCCCCCCC(=O)*; dDab = NCC[C@@H](N)C(=O)O; Dab = NCC[C@H](N)C(=O)O

Legend:
A. baumannii ATCC 19606 = details: ATCC 19606
Description: (§1) Bacteria were either obtained from American Type Culture Collection (ATCC; Manassas, Va., USA) or independent academic clinical isolate collections, as listed in Table 18 below. Bacteria were cultured in Nutrient broth (NB; Bacto Laboratories, catalogue No. 234000) or Mueller Hinton broth (MHB; Bacto Laboratories, catalogue No. 211443) at 37° C. overnight with shaking (˜180 RPM). A sample of each culture was then diluted 50-fold in fresh MHB and incubated at 37° C. for 2-3 h with shaking (˜180 RPM). Compound stock solutions were prepared as 0.64 mg/mL or 2.56 mg/mL in water. The compounds, at twice the final desired concentration, were serially diluted 2-fold across the wells of 96-well plates (Polystyrene, Corning, catalogue No. 3370). Mid-log phase bacterial cultures (after 2-3 h incubation) were diluted to a final concentration of 1×10^6 colony forming units (CFU)/mL, and 50 μL was added to each well giving a final cell density of 5×10^5 and a compound concentration range of 32 μg/mL to 0.015 μg/mL (128-0.06 μg/mL against P. aeruginosa PA9704).

A. baumannii GN_093 PmxR = details: GN 093 PmxR
Description: as §1

E. coli ATCC 25922 = details: ATCC 25922
Description: as §1

K. pneumoniae ATCC 13883 = details: ATCC 13883
Description: as §1

[1] = tested on: K. pneumoniae ATCC 700603, MDR; details: ATCC 700603
Description: as §1

[2] = tested on: K. pneumoniae ATCC BAA-2146, NDM-1 pos; details: ATCC BAA-2146
Description: as §1

[3] = tested on: K. pneumoniae GN_102 PmxR; details: GN 102 PmxR
Description: as §1

[4] = tested on: K. pneumoniae GN_106, PmxR; details: GN 106, PmxR
Description: as §1

P. aeruginosa ATCC 27853 = details: ATCC 27853
Description: as §1

[5] = tested on: P. aeruginosa GN_043, PmxR
Description: as §1

[6] = tested on: P. aeruginosa GN_105, PmxR; details: GN 105, PmxR
Description: as §1

[7] = tested on: S. aureus ATCC 25923, MSSA; details: ATCC 25923
Description: as §1

Structure (SMILES)	MIC, A. baumannii ATCC 19606 (A. baumannii ATCC 19606) [mg/L]	MIC A. baumannii GN_093 PmxR (A. baumannii GN_093 PmxR) [mg/L]	MIC, E. coli ATCC 25922 (E. coli ATCC 25922) [mg/L]	MIC, K. pneumoniae ATCC 13883 (K. pneumoniae ATCC 13883) [mg/L]	MIC, K. pneumoniae ATCC 700603, MDR [1] [mg/L]	MIC, K. pneumoniae ATCC BAA-2146, NDM-1 pos [2] [mg/L]	MIC K. pneumoniae GN_102 PmxR [3] [mg/L]	MIC K. pneumoniae GN_106, PmxR [4] [mg/L]	MIC, P. aeruginosa ATCC 27853 (P. aeruginosa ATCC 27853) [mg/L]	MIC P. aeruginosa GN_043, PmxR ([5]; Table 6, polymyxin-resistant) [mg/L]	MIC P. aeruginosa GN_105, PmxR [6] [mg/L]	MIC, S. aureus ATCC 25923, MSSA [7] [mg/L]	MIC A. baumannii ATCC 19606 (A. baumannii ATCC 19606) [mg/L]	MIC E. coli ATCC 25922 (E. coli ATCC 25922) [mg/L]	MIC K. pneumoniae ATCC 13883 (K. pneumoniae ATCC 13883) [mg/L]	MIC K. pneumoniae ATCC 700603, MDR [1] [mg/L]	MIC K. pneumoniae ATCC BAA-2146, NDM-1 pos [2] [mg/L]	MIC P. aeruginosa ATCC 27853 (P. aeruginosa ATCC 27853) [mg/L]	MIC P. aeruginosa GN_043, PmxR ([5]; P. aeruginosa GN_043, PmxR) [mg/L]	MIC S. aureus ATCC 25923, MSSA [7] [mg/L]
CCCCCCC[C@@H](O)CC(=O)N[C@H](Cc1ccc([N+](=O)[O-])cc1)C(=O)N[C@H]1CCNC(=O)[C@H](CC(C)C)NC(=O)[C@H](CCN)NC(=O)[C@H](CCN)NC(=O)[C@H](CC(C)C)NC(=O)[C@@H](Cc2ccccc2)NC(=O)[C@H](CCN)NC1=O [compound 6448, 3(R)OH-nC9CO-D-4NO2Phe-cyc[L-Dab-L-Dab-D-Phe-L-Leu-L-Dab-L-Dab-L-Leu]] ({Decanoyl(3R-OH)}-[dPhe(4-NO2)][Dab][Dab][dF]L[Dab][Dab]L; lactam 2-C)	8 (≈ 7.04 µM)	8 (≈ 7.04 µM)	4 (≈ 3.52 µM)	4 (≈ 3.52 µM)	8 (≈ 7.04 µM)	8 (≈ 7.04 µM)	8 (≈ 7.04 µM)	4 (≈ 3.52 µM)	8 (≈ 7.04 µM)	8 (≈ 7.04 µM)	8 (≈ 7.04 µM)	16 (≈ 14.1 µM)								
CCCCCCC[C@@H](O)CC(=O)N[C@@H](CCN)C(=O)N[C@@H]1CCNC(=O)[C@H](CC(C)C)NC(=O)[C@H](CCN)NC(=O)[C@H](CCN)NC(=O)[C@H](CC(C)C)NC(=O)[C@@H](Cc2ccc(-c3ccccc3)cc2)NC(=O)[C@H](CCN)NC1=O [compound 6661, 3(R)OH-nC9CO-L-Dab-cyc[D-Dab-L-Dab-D-Bip-L-Leu-L-Dab-L-Dab-L-Leu]] ({Decanoyl(3R-OH)}-[Dab][dDab][Dab][dBip]L[Dab][Dab]L; lactam 2-C)		>32					>32	>32			8 (≈ 7.14 µM)		>32	32 (≈ 28.6 µM)	32 (≈ 28.6 µM)	32 (≈ 28.6 µM)	32 (≈ 28.6 µM)	8 (≈ 7.14 µM)	>32	8 (≈ 7.14 µM)
CC(=O)N[C@H](CCN)C(=O)N[C@H]1CCNC(=O)[C@H](Cc2c[nH]c3ccccc23)NC(=O)[C@H](CCN)NC(=O)[C@H](CCN)NC(=O)[C@H](CC(C)C)NC(=O)[C@@H](Cc2ccccc2)NC(=O)[C@H](CCN)NC1=O [compound 8981, Ac-D-Dab-cyc[L-Dab-L-Dab-D-Phe-L-Leu-L-Dab-L-Dab-L-Trp]] (Ac-[dDab][Dab][Dab][dF]L[Dab][Dab]W; lactam 2-C)		32 (≈ 32.3 µM)					>32	>32			>32		>32	32 (≈ 32.3 µM)	>32	16 (≈ 16.2 µM)	16 (≈ 16.2 µM)	4 (≈ 4.04 µM)		>32
CCCCCCCCCC(=O)N[C@@H](CCN)C(=O)N[C@H]1CCNC(=O)[C@H](CC(C)C)NC(=O)[C@H](CCN)NC(=O)[C@H](CCN)NC(=O)[C@H](CC(C)C)NC(=O)[C@@H](Cc2ccccc2)NC(=O)[C@H](CCN)NC1=O [compound 5568, nC9CO-L-Dab-cyc[L-Dab-L-Dab-D-Phe-L-Leu-L-Dab-L-Dab-L-Leu]] (Decanoyl-[Dab][Dab][Dab][dF]L[Dab][Dab]L; lactam 2-C)	16 (≈ 15.6 µM)	>32	8 (≈ 7.78 µM)	4 (≈ 3.89 µM)	8 (≈ 7.78 µM)	8 (≈ 7.78 µM)		16 (≈ 15.6 µM)	4 (≈ 3.89 µM)	4 (≈ 3.89 µM)	4 (≈ 3.89 µM)	8 (≈ 7.78 µM)								
